Key:
Type in all cases: biochemical
Conditions in all cases: at 10 μM; single dose, triplicate
[1] = system: MMP-9; experiment: MMP-9 fluorometric FRET protease assay
[2] = system: MMP-2; experiment: MMP-2 fluorometric FRET protease assay
[3] = system: MMP-14; experiment: MMP-14 fluorometric FRET protease assay
[4] = system: MMP-1; experiment: MMP-1 fluorometric FRET protease assay
[5] = system: MMP-8; experiment: MMP-8 fluorometric FRET protease assay
[6] = system: MMP-7; experiment: MMP-7 fluorometric FRET protease assay
[7] = system: MMP-3; experiment: MMP-3 fluorometric FRET protease assay
[8] = system: MMP-12; experiment: MMP-12 fluorometric FRET protease assay

O=C(O)CCCOc1cccc(CNC(=O)C#Cc2cn(Cc3ccc(C(=O)O)cc3)c(=O)[nH]c2=O)c1 [Compound 4, 4-({5-[2-({[3-(3-carboxypropoxy)phenyl]methyl}carbamoyl)eth-1-yn-1-yl]-2,4-dioxo-1,2,3,4-tetrahydropyrimidin-1-yl}methyl)benzoic acid]
<50 % inhibition at 10 μM: MMP-9 inhibition [1] | MMP-2 inhibition [2] | MMP-14 inhibition [3] | MMP-1 inhibition [4] | MMP-8 inhibition [5] | MMP-7 inhibition [6] | MMP-3 inhibition [7] | MMP-12 inhibition [8]
